Laboratory results reported in article PMC13112672, “The Drp1-CoQ10-Coa6-ETC axis represents a therapeutic potential for working memory impairment caused by neuronal mitochondrial dysfunction” (Translational Neurodegeneration, 2026).

Molecular target: T1, Coa6 (cytochrome c oxidase assembly factor 6) (Mus musculus, UniProt Q8BGD8)
T1 construct: E. coli BL21(DE3); Ni-bead purification (vector His tag, removal not mentioned)
T1 sequence (Q8BGD8 1-79): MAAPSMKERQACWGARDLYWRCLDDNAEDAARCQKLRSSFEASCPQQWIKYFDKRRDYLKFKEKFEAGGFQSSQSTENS
Test: surface plasmon resonance (CM5 chip, immobilised Coa6)
Type: binding
Details: analyte 0.39–25 μM CoQ10; protein amine-coupled, ~12,600 RU

## COC1=C(OC)C(=O)C(C/C=C(\C)CC/C=C(\C)CC/C=C(\C)CC/C=C(\C)CC/C=C(\C)CC/C=C(\C)CC/C=C(\C)CC/C=C(\C)CC/C=C(\C)CCC=C(C)C)=C(C)C1=O [CoQ10]
  Kd: 24 µM
